Experimental findings from US20100055799A1, “TEST AGENT FOR DIAGNOSING DYSPEPSIA” (priority 2006, published 2010) are described below.

The format of series [1] is physicochemical.
A short description of series [2]: 2-13C uracil concentration in plasma of patients suspected of post-operative gastroparesis. The class given is in vivo, human. To be noted: 20 minutes after oral 100 mg 2-13C uracil (Example 2 granules); patients with decreased or insufficient gastric-emptying function versus normal type.
Series [3] deals with gastric-emptying function. Nature of the series: 13C breath test in delayed gastric-emptying model rats (propantheline pretreatment). The class given is in vivo, rat. To be noted: propantheline 1 mg/kg i.v. 5 min before 10 mg/kg oral 2-13C uracil; expired air 5-60 min. As to the method: “Propantheline”, an anticholinergic agent, was intravenously administered to rats (female, Wister rat, 8 weeks old: n=3) in such an amount of 1 mg/kg to obtain model animals whose gastric-emptying function was decreased (a delayed gastric-emptying model). […] The expired air samples were collected over time, and the ^13CO2 concentration in each expired air sample was measured.

The structures appear in SMILES notation. Like-named read-outs stand apart in the source and are kept apart here.

As to `O=c1cc[nH]c(=O)[nH]1` [uracil], the “change of solubility depending on the pH of the solution” value in series [1] (pH 2) is on record as “almost unchanged”.
Regarding `O=c1cc[nH][13c](=O)[nH]1` [2-^13C uracil], in series [2], the “2-13C uracil concentrations in plasma” value was “lowered”. The Solubility was found to be 0.28 w/v % in series [1] (pH 2), 0.28 w/v % in series [1] (pH 4), 0.28 w/v % in series [1] (pH 6) and 0.29 w/v % in series [1] (pH 8).
Take `CC(C)[N+](C)(CCOC(=O)C1c2ccccc2Oc2ccccc21)C(C)C` [propantheline, Propantheline]: the “13CO2 concentration (Δ13C value) excreted in expired air versus normal rats” value in series [3] is recorded as “significantly lower”.
